In experiment [1] the test system is symmetric dimethylation of arginine (SDMA) of PRMT5 substrates in MCF-7 cells. Briefly: PRMT5 Cell Target Engagement (TE) Assay. It counts as cell-based. The note with it: Homo sapiens, MCF7, 72 h, 3 days treatment, SDMA high content imaging. In a few lines: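 MCF-7 cells treated 3 days at 37 °C with a ten-point 1:3 titration from 10000 nM. Fixed cells immunostained with anti-SDMA and Alexa488 secondary; nuclear fluorescence quantified by high-content imaging versus DMSO wells, with IC50 from a 4-parameter fit.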

Experiment [2] addresses T1, Full-length (FL)-PRMT5-MEP50 enzyme complex (Homo sapiens, UniProt O14744).
T1 construct: Full-length (FL)-PRMT5-MEP50 enzyme complex (recombinant proteins from baculovirus-transfected Sf21 cells: FL-PRMT5; MW=73837 kDa and FL-MEP50; MW=38614); made in house; host or cells: baculovirus-transfected Sf21 cells
Briefly: PRMT5-MEP50 Enzyme Methylation Assay (Version A). It counts as biochemical. In a few lines:
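Compound was pre-incubated with enzyme for 60 min, then reacted 150 min at 37° C. at final 1.0 nM PRMT5-MEP50, 15 μM SAM and 75 nM biotinylated H4R3(Me1) peptide, in 50 mM Bicine pH 8.0 with 1% DMSO. SAMDI mass-spectrometric readout of Me1→Me2 conversion. EC50 from 4- or 7-parameter regression.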

Setting [3] is: second value of 7 parameter biphasic fit, read-out: Enzyme Methylation Assay Version A (EC50 2).
[4] abbreviates: single EC50 = 4 parameter single site sigmoidal fit, EC50 1 = first value of 7 parameter biphasic fit, read-out: Enzyme Methylation Assay Version A (EC50 or EC50 1).

The EC50 is the concentration at which the effect is half-maximal.

Where two headings read alike, the source gives them in different places.

T1 sequence (O14744 whole entry): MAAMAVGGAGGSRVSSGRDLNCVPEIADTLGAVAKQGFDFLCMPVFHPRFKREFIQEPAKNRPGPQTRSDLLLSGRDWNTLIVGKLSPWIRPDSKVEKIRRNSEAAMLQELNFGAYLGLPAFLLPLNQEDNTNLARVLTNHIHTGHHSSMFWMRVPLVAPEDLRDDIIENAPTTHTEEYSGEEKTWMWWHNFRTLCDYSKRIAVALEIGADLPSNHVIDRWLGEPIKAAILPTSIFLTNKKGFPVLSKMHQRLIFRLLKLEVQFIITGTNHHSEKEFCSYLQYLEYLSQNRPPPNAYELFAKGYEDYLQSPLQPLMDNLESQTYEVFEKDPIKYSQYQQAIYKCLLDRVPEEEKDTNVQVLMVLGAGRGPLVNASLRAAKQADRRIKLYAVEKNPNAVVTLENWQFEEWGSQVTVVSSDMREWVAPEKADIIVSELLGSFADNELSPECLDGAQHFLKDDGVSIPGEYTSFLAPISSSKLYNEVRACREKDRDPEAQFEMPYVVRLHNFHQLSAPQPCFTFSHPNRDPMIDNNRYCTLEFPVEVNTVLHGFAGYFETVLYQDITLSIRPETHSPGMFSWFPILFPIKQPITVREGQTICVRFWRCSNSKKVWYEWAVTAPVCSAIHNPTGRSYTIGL
T1 sequence (Q9BQA1 whole entry partner): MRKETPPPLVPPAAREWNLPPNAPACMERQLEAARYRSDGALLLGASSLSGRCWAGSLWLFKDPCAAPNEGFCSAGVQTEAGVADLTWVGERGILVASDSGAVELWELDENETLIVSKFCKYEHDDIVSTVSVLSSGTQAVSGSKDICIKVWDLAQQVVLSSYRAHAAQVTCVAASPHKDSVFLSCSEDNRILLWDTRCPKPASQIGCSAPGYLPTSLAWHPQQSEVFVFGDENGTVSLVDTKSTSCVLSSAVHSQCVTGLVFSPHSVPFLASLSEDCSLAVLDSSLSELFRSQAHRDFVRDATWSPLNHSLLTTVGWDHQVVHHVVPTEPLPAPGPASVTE

Take `O=C(c1ccc2c(O)c(CC(F)(F)F)cnc2c1)N1CC[C@]2(Cc3ccccc3CN2)[C@H](O)C1` [Example 153, ((3R,3′R)-3′-hydroxy-1,4-dihydro-2H-spiro[isoquinoline-3,4′-piperidin]-1′-yl)(4-hydroxy-3-(2,2,2-trifluoroethyl)quinolin-7-yl)methanone]: the 50% effective concentration (EC50) in experiment [1] is 414 nM; in experiment [2] (setting [3]), 2950 nM; in experiment [2] (setting [4]), 4.3 nM.
With `O=C(c1cn2cc(C(F)(F)F)cc(C3CCOC3)c2n1)N1CC[C@]2(Cc3ccccc3CN2)[C@H](O)C1` (stereo partly drawn) [Example 154, ((3R,3′R)-3′-hydroxy-2,4-dihydro-1H-spiro[isoquinoline-3,4′-piperidin]-1′-yl)(8-(tetrahydrofuran-3-yl)-6-(trifluoromethyl)imidazo[1,2-a]pyridin-2-yl)methanone], the concentration for a half-maximal effect (EC50) was 4.42 nM in experiment [1], 266 nM in experiment [2] (setting [3]) and 0.802 nM in experiment [2] (setting [4]).
The matching figures for `O=C(c1cnc2ncc(C(F)(F)F)cn12)N1CC[C@]2(Cc3ccccc3CN2)[C@H](O)C1` [Example 168, [(3R,3′R)-3′-hydroxy-1,4-dihydro-1′H,2H-spiro[isoquinoline-3,4′-piperidin]-1′-yl][6-(trifluoromethyl)imidazo[1,2-a]pyrimidin-3-yl]methanone]: 50.2 nM, 385 nM and 2.56 nM.
As for `O=C(c1cn2cc(C(F)(F)F)cnc2n1)N1CC[C@]2(Cc3ccccc3CN2)[C@H](O)C1` [Example 169, [(3R,3′R)-3′-hydroxy-1,4-dihydro-1′H,2H-spiro[isoquinoline-3,4′-piperidin]-1′-yl][6-(trifluoromethyl)imidazo[1,2-a]pyrimidin-2-yl]methanone], the EC50 in experiment [1] turned out to be 89 nM; in experiment [2] (setting [3]) it was 427 nM; in experiment [2] (setting [4]), 1.51 nM.
Regarding `O=C(c1ccc2c(c1)NCCN(CC(F)(F)F)C2=O)N1CC[C@]2(Cc3ccccc3CN2)[C@H](O)C1` [Example 170, 8-{[(3R,3′R)-3′-hydroxy-1,4-dihydro-1′H,2H-spiro[isoquinoline-3,4′-piperidin]-1′-yl]carbonyl}-4-(2,2,2-trifluoroethyl)-1,2,3,4-tetrahydro-5H-1,4-benzodiazepin-5-one], the EC50 in experiment [1] is 19 nM; in experiment [2] (setting [3]) it was 1780 nM; in experiment [2] (setting [4]) it was 2.56 nM.
Consider `O=C(c1cc2n(n1)CCS(=O)(=O)C2)N1CC[C@]2(Cc3ccccc3CN2)[C@H](O)C1` [Example 177, (5,5-dioxido-6,7-dihydro-4H-pyrazolo[5,1-c][1,4]thiazin-2-yl)((3R,3′R)-3′-hydroxy-1,4-dihydro-2H-spiro[isoqiuinoline-3,4′-piperidin]-1′-yl)methanone], for which the concentration giving a half-maximal response (EC50) in experiment [1] was no less than 10000 nM; in experiment [2] (setting [4]) it was 1910 nM.
With `Cc1cc(C)n2nc(C(=O)N3CC[C@]4(Cc5ccccc5CN4)[C@H](O)C3)nc2n1` [Example 178, (5,7-dimethyl-[1,2,4]triazolo[1,5-a]pyrimidin-2-yl)((3R,3′R)-3′-hydroxy-1,4-dihydro-2H-spiro[isoquinoline-3,4′-piperidin]-1′-yl)methanone], the EC50 worked out at 3210 nM in experiment [1], 85100 nM in experiment [2] (setting [3]) and 129 nM in experiment [2] (setting [4]).
Consider `Cc1cc(C(F)F)n2nc(C(=O)N3CC[C@]4(Cc5ccccc5CN4)[C@H](O)C3)nc2n1` [Example 179, (7-(difluoromethyl)-5-methyl-[1,2,4]triazolo[1,5-a]pyrimidin-2-yl)((3R,3′R)-3′-hydroxy-1,4-dihydro-2H-spiro[isoquinoline-3,4′-piperidin]-1′-yl)methanone], for which the EC50 in experiment [1] was 8760 nM; in experiment [2] (setting [3]) it was 69200 nM; in experiment [2] (setting [4]), 513 nM.
As for `Cc1nn(C)c2ncc(C(=O)N3CC[C@]4(Cc5ccccc5CN4)[C@H](O)C3)c(Cl)c12` [Example 180, (4-chloro-1,3-dimethyl-1H-pyrazolo[3,4-b]pyridin-5-yl)((3R,3′R)-3′-hydroxy-1,4-dihydro-2H-spiro[isoquinoline-3,4′-piperidin]-1′-yl)methanone], the results for the EC50 in experiment [1], in experiment [2] (setting [3]) and in experiment [2] (setting [4]) were 1320 nM, 52500 nM and 51.3 nM, respectively.
Consider `Cc1cc2ncc(C(=O)N3CC[C@]4(Cc5ccccc5CN4)[C@H](O)C3)c(C)n2n1` [Example 181, (2,7-dimethylpyrazolo[1,5-a]pyrimidin-6-yl)((3R,3′R)-3′-hydroxy-1,4-dihydro-2H-spiro[isoquinoline-3,4′-piperidin]-1′-yl)methanone], for which the figures for the EC50 in experiment [1], in experiment [2] (setting [3]) and in experiment [2] (setting [4]) were 924 nM, 3980 nM and 20.9 nM, respectively.
For `O=C(c1cc2oc3ccccc3c2cc1O)N1CC[C@]2(Cc3ccccc3CN2)[C@H](O)C1` [Example 182, ((3R,3′R)-3′-hydroxy-1,4-dihydro-2H-spiro[isoquinoline-3,4′-piperidin]-1′-yl)(2-hydroxydibenzo[b,d]furan-3-yl)methanone] the same measures were 155 nM, 1350 nM and 4.57 nM.
For `Cc1cc(-c2onc(C)c2C(=O)N2CC[C@]3(Cc4ccccc4CN3)[C@H](O)C2)no1` [Example 183, (3′,5-dimethyl-[3,5′-biisoxazol]-4′-yl)((3R,3′R)-3′-hydroxy-1,4-dihydro-2H-spiro[isoquinoline-3,4′-piperidin]-1′-yl)methanone] the same measures were 297 nM, 7940 nM and 4.87 nM.
`Cc1cc2nnc(C(=O)N3CC[C@]4(Cc5ccccc5CN4)[C@H](O)C3)c(C)n2n1` [Example 184, (4,7-dimethylpyrazolo[5,1-c][1,2,4]triazin-3-yl)((3R,3′R)-3′-hydroxy-1,4-dihydro-2H-spiro[isoquinoline-3,4′-piperidin]-1′-yl)methanone]: the concentration giving a half-maximal response (EC50) was 995 nM in experiment [1], 21900 nM in experiment [2] (setting [3]) and 16.2 nM in experiment [2] (setting [4]).
Turning to `O=C(c1nccn2nccc12)N1CC[C@]2(Cc3ccccc3CN2)[C@H](O)C1` [Example 185, ((3R,3′R)-3′-hydroxy-1,4-dihydro-2H-spiro[isoquinoline-3,4′-piperidin]-1′-yl)(pyrazolo[1,5-a]pyrazin-4-yl)methanone], the results for the EC50 in experiment [1], in experiment [2] (setting [3]) and in experiment [2] (setting [4]) were 1540 nM, 26900 nM and 24 nM, respectively.
On to `Cc1ccc(C(=O)N2CC[C@]3(Cc4ccccc4CN3)[C@H](O)C2)c(-n2nccn2)n1` [Example 186, ((3R,3′R)-3′-hydroxy-1,4-dihydro-2H-spiro[isoquinoline-3,4′-piperidin]-1′-yl)(6-methyl-2-(2H-1,2,3-triazol-2-yl)pyridin-3-yl)methanone], for which the EC50 turned out to be 71.2 nM in experiment [1], 501 nM in experiment [2] (setting [3]) and 0.241 nM in experiment [2] (setting [4]).
Turning to `O=C(c1ccnc(-n2cnnn2)c1)N1CC[C@]2(Cc3ccccc3CN2)[C@H](O)C1` [Example 187, (2-(1H-tetrazol-1-yl)pyridin-4-yl)((3R,3′R)-3′-hydroxy-1,4-dihydro-2H-spiro[isoquinoline-3,4′-piperidin]-1′-yl)methanone], the EC50 amounted to 4280 nM in experiment [1], 26900 nM in experiment [2] (setting [3]) and 75.9 nM in experiment [2] (setting [4]).
For the molecule `O=C(c1ccc2nccn2n1)N1CC[C@]2(Cc3ccccc3CN2)[C@H](O)C1` [Example 188, ((3R,3′R)-3′-hydroxy-1,4-dihydro-2H-spiro[isoquinoline-3,4′-piperidin]-1′-yl)(imidazo[1,2-b]pyridazin-6-yl)methanone], the EC50 in experiment [1] stood at 3320 nM; in experiment [2] (setting [3]), 74100 nM; in experiment [2] (setting [4]), 144 nM.
On to `O=C(c1ccnc2ncnn12)N1CC[C@]2(Cc3ccccc3CN2)[C@H](O)C1` [Example 189, [1,2,4]triazolo[1,5-a]pyrimidin-7-yl((3R,3′R)-3′-hydroxy-1,4-dihydro-2H-spiro[isoquinoline-3,4′-piperidin]-1′-yl)methanone], for which the results for the EC50 in experiment [1], in experiment [2] (setting [3]) and in experiment [2] (setting [4]) were 3500 nM, 66100 nM and 30.2 nM, respectively.
Take `O=C(c1c[nH]c2ncncc12)N1CC[C@]2(Cc3ccccc3CN2)[C@H](O)C1` [Example 190, [(3R,3′R)-3′-hydroxy-1,4-dihydro-1′H,2H-spiro[isoquinoline-3,4′-piperidin]-1′-yl](1H-pyrrolo[2,3-d]pyrimidin-5-yl)methanone]: the 50% effective concentration (EC50) was no less than 10000 nM in experiment [1] and 343 nM in experiment [2] (setting [4]).
For the molecule `Cc1nn(C)c2[nH]c(C(=O)N3CC[C@]4(Cc5ccccc5CN4)[C@H](O)C3)cc(=O)c12` [Example 191, 6-{[(3R,3′R)-3′-hydroxy-1,4-dihydro-1′H,2H-spiro[isoquinoline-3,4′-piperidin]-1′-yl]carbonyl}-1,3-dimethyl-1,7-dihydro-4H-pyrazolo[3,4-b]pyridin-4-one], the figures for the 50% effective concentration (EC50) in experiment [1] and in experiment [2] (setting [4]) were no less than 10000 nM and 2880 nM, respectively.
`O=C(c1ccc(-n2cnnn2)cn1)N1CC[C@]2(Cc3ccccc3CN2)[C@H](O)C1` [Example 192, [(3R,3′R)-3′-hydroxy-1,4-dihydro-1′H,2H-spiro[isoquinoline-3,4′-piperidin]-1′-yl][5-(1H-tetrazol-1-yl)-2-pyridinyl]methanone]: the results for the EC50 in experiment [1], in experiment [2] (setting [3]) and in experiment [2] (setting [4]) were no less than 10000 nM, 34700 nM and 112 nM, respectively.
As to `Cc1ccnc2nc(C(=O)N3CC[C@]4(Cc5ccccc5CN4)[C@H](O)C3)nn12` [Example 193, [(3R,3′R)-3′-hydroxy-1,4-dihydro-1′H,2H-spiro[isoquinoline-3,4′-piperidin]-1′-yl](7-methyl[1,2,d]triazolo[1,5-a]pyrimidin-2-yl)methanone], the EC50 in experiment [1] is 9610 nM; in experiment [2] (setting [4]), 27000 nM.

Values taken from patent publication US12441730B2, “PRMT5 inhibitors” (Merck Sharp & Dohme LLC, priority 2019, dated 2025).
